This is an account of results in patent US20040018527A1, “Differential patterns of gene expression that predict for docetaxel chemosensitivity and chemo resistance” (priority 2002, published 2004).

SMILES strings stand for the structures.

Assay [1] deals with HSP27-overexpressing cell lines. To be noted: cited from earlier work.
The subject of assay [2] is locally advanced breast cancer. Nature of the assay: phase II study with neoadjuvant docetaxel, clinical response (residual disease) after 4 cycles. The class given is in vivo, human. From the text:
From September 1999 to June 2001, patients with locally advanced breast cancer (primary cancers greater than 4 cm, or with clinically evident axillary metastases) were considered for a phase II study with neoadjuvant docetaxel. The inclusion criteria were 1) age greater than 18 years and a diagnosis of breast cancer confirmed by core needle biopsy, 2) premenopausal status accompanied by appropriate contraception, 3) adequate performance status, and 4) adequate liver and kidney function tests (all within 1.5 times the upper limit of normal). Exclusion criteria included 1) severe underlying chronic illness or disease, and 2) treatment with other chemotherapeutic drugs while on study.
Clinical staging and size of primary tumor was recorded at the start of treatment, at each cycle, and after completion of 4 cycles of chemotherapy. Tumor size (product of the two largest perpendicular diameters) measured before and after 4 cycles of neoadjuvant chemotherapy was used to compute the percentage of residual disease. The median residual disease was then calculated, and this degree of response was then used to divide the cancers into 2 groups of sensitive and resistant categories of approximately equal numbers before gene expression analysis.
Core biopsies of the primary cancers were undertaken before administration of single agent docetaxel as neoadjuvant treatment. Docetaxel at 100 mg/m2 was given every three weeks for a total of 4 cycles, and clinical response assessed after the fourth cycle, at 12 weeks. As the standard of care, patients were continued on neoadjuvant chemotherapy through the full 4 cycles unless there was clear documentation of progressive disease, defined as increase in tumor size of more than 25%. Primary surgery and standard adjuvant therapy was then administered following completion of neoadjuvant docetaxel. In order to maximize the likelihood of obtaining sufficient tissue, approximately six core biopsies using a Bard MaxCore Biopsy Instrument (#MC1410) were taken. Biopsies were performed under local anesthesia, using the same entry point, but reorienting the needle. Two to three core biopsy specimens were immediately transferred for snap freezing at −80° C. for cDNA array analysis. The remaining specimens were fixed in formalin for diagnostic and possible immunohistochemical analysis.
The clinical characteristics of the 24 patients enrolled in this phase II neoadjuvant study are included in Table 1. Before treatment, the median tumor size was 8 cm (range 4 to 30 cm). Prior to gene expression analysis, the sensitivity and resistance was defined based on the percentage of residual disease after treatment. It was determined that the median residual disease after chemotherapy was 30%. Then, it was arbitrarily defined that sensitive tumors were those with 25% residual disease or less and resistant tumors were those with greater than 25% residual disease, as this cut-off divides the numbers of patients almost equally into two groups for statistical comparison. In addition, the presenting tumors were large in this study of locally advanced breast cancer, and tumor regressions of at least 75% following chemotherapy would almost certainly represent clinically responsive disease.

For assay [3], the system named is MDA-MB-23 1 breast cancer cell line. Conditions: MDA-MB-23 1 cells overexpressing heat shock protein 27; cited from earlier work.

For the molecule `CC(=O)O[C@@]12CO[C@@H]1C[C@H](O)[C@@]1(C)C(=O)[C@H](O)C3=C(C)[C@@H](OC(=O)[C@H](O)[C@@H](NC(=O)OC(C)(C)C)c4ccccc4)C[C@@](O)([C@@H](OC(=O)c4ccccc4)[C@H]21)C3(C)C` [docetaxel], in assay [1], the sensitivity to docetaxel result was “remain sensitive”. Moreover, the “resistant tumors with residual tumors 100% or greater of baseline” value in assay [2] (3/13 resistant tumors) amounted to 23%. In assay [2] (5/11 sensitive tumors), the “sensitive tumors with minimal residual disease (<10% residual tumor)” value worked out at 45%. Also, the “residual disease, independent cohort” value in assay [2] (6 additional patients of the same clinical study, all 6 sensitive tumors) is “less than 25%”. The “resistant tumors with residual tumors ≧60%” value in assay [2] (7/13 resistant tumors) turned out to be 58%. The “patients sensitive to docetaxel (25% residual disease or less)” value in assay [2] (11 of 24 patients) was determined as 46%. The “patients resistant to docetaxel (greater than 25% residual disease)” value in assay [2] (13 of 24 patients) is reported as 54%. Besides, in assay [2] (24 patients, docetaxel 100 mg/m2 every three weeks, 4 cycles, tumor size after vs before, at 12 weeks), the “median residual disease after chemotherapy” value was 30%.
As to `COc1cccc2c1C(=O)c1c(O)c3c(c(O)c1C2=O)C[C@@](O)(C(=O)CO)C[C@@H]3O[C@H]1C[C@H](N)[C@H](O)[C@H](C)O1` [Adriamycin], the “association of HSP27 overexpression with drug resistance” value in assay [3] is recorded as “resistance”.
